Source: PubChem BioAssay AID179 (DTP/NCI, 2004)
“And” between values parts separate entries of the source, which are not always exact repeats. Equal values may be shown once. The source made the active and inactive calls.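 The calls were made as follows: active = compounds giving half or more protection of infected cells from virus-caused growth loss, again on retest; inactive = the rest.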

Tested on: CEM cells HIV-1 protection, formazan growth assay
Experiment: NCI AIDS Antiviral Assay
Conditions: for IC50: measured here: growth of uninfected CEM cells
Method in brief: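 Soluble formazan readout of cell growth; CEM cells ± HIV-1; 5 drug concs. ≥50% protection → retest; ≥50% again = moderately active; reproducible 100% = confirmed active.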

| SMILES | EC50 [µM] | IC50 | outcome |
| --- | --- | --- | --- |
| CC(C)=NOC(=O)OC[C@H]1O[C@@H](n2cnc3c(N)ncnc32)C(O)C1O (stereo partly drawn) | > 200 | > 200 µM | – |
| CCOC(=O)Cc1nc2nn(Cc3ccccc3)cc2c(=O)[nH]1 | > 200 | > 200 µM | – |
| O=c1c2ccccc2nc(/C=C(\O)c2ccncc2)n1-c1ccc(Cl)cc1 | > 1.45 | > 1.45 µM | – |
| CCOC(=O)c1c(SC(=O)c2ccc(C(C)(C)C)cc2)n(-c2ccccc2)c(=S)n(-c2ccccc2)c1=O | > 200 | 27.5 µM | – |
| Cc1nc(Nc2ccccc2C)c2ccsc2n1 | > 263 | > 263 µM | – |
| C=C(c1cc(C(=O)OC)c(OC)c(Br)c1C)c1cc(C(=O)OC)c(OC)c(Br)c1C | > 200 | 77.6 µM | – |
| COc1cc(N=Nc2c(S(=O)(=O)O)cc3cc(NC(=O)Nc4ccc5c(O)c(N=Nc6ccc7cc(S(=O)(=O)O)ccc7c6)c(S(=O)(=O)O)cc5c4)ccc3c2O)c(C)cc1N | – | – | active |
| CCCCCCCCCCCCCCCCNc1ccn(C2CC(OP(=O)(O)OCC3OC(n4cc(C)c(=O)[nH]c4=O)CC3N=[N+]=[N-])C(CO)O2)c(=O)n1 (stereo not drawn) | 0.182 | 77.6 µM | – |
| NCCC1([N+](=O)[O-])CCNCC1 | > 200 | > 200 µM | – |
| COC(=O)C[P+](c1ccccc1)(c1ccccc1)c1ccccc1 | > 200 | > 200 µM | – |
| Cc1cn(C2CC(O[Si](C)(C)C(C)(C)C)C(CN(OC(=O)Oc3ccccc3)C(=O)Oc3ccccc3)O2)c(=O)[nH]c1=O (stereo not drawn) | > 200 | 10.2 µM | – |
| O=C1CCC(O)=C1O | > 2190 | > 2190 µM | – |
| N#CC(c1ccccc1)N(CCCCCCN(C(=O)c1ccccc1)C(C#N)c1ccccc1)C(=O)c1ccccc1 (stereo not drawn) | > 200 | 61.7 µM | – |
| CCOP(=O)(OCC)/C(=C\n1c(=S)[nH]c2cc(C)ccc21)C(=O)OC | > 200 | > 200 µM | – |
| CC1(C)OC2OC(C(O)CO)C(OC(=S)SSC(=S)OC3C(C(O)CO)OC4OC(C)(C)OC43)C2O1 (stereo not drawn) | > 200 | 36.3 µM | – |
| NCCCCCC(CCN)SCC1OC(n2cnc3c(N)ncnc32)C(O)C1O (stereo not drawn) | > 200 | 107 µM | – |
| COc1ccc(Cc2c(=O)[nH]nc3ccccc23)cc1 | > 70.8 | > 70.8 µM | – |
| COc1ccc(-c2c(C#N)c(S)n(C3OC(CO)C(O)C(O)C3O)c(=O)c2C#N)cc1 (stereo not drawn) | > 200 | 195 µM and > 200 µM | – |
| CCc1ccccc1NC(=O)C1=C(C)NC(C)=C(C(=O)Nc2ccccc2CC)C1c1ccc(NC(C)=O)cc1 | > 34.7 | > 34.7 µM | – |
| CCOC(CCCN1CCC2(CC1)C(=O)N(C)CN2c1ccccc1)(OCC)c1ccc(F)cc1 | > 200 | 15.1 µM | – |

| SMILES | EC50 [µM] | IC50 | outcome |
| --- | --- | --- | --- |
| CCN(CC)CCN1C(=O)c2cccc3cc(N)cc(c23)C1=O | > 200 | 8.13 µM | – |
| CC(C)=CCC/C(C)=C\CCC1(C)OC(=O)C2CC21 (stereo not drawn) | > 200 | 81.3 µM and 36.3 µM | – |
| COC(=O)C1=C(C(=O)OC)C23C=CC=CC24C(C(=O)OC)=C(C(=O)OC)C4C1C3 (stereo not drawn) | > 447 | 155 µM | – |
| N#CCCN(CCC#N)c1ccc(/C=C2\N=C(CN3C(=O)c4ccccc4C3=O)OC2=O)cc1 | > 79.4 | > 79.4 µM | – |
| CC(=O)O[C@@]12[C@@H]3O[C@@]4(O)C[C@]5(C)[C@H]6C[C@@](C(C)C)(O[C@H]5c5ccoc5)O[C@H]1[C@]6(C4)O[C@]2(O)C(C)=CC3(C)C | > 100 | 52.5 µM | – |
| COC(=O)CCC(=O)C(CC(=O)OC)C(=O)CCC(=O)NCCc1ccccc1 (stereo not drawn) | > 27.5 | > 27.5 µM | – |
| CC(=O)Nc1ccc(-c2nnc(SCC(=O)Nc3cccc([N+](=O)[O-])c3)o2)cc1 | > 45.7 | 7.76 µM | – |
| CCCCOC(=O)CC(C(=O)OCCCC)C(C(=O)OCCCC)P(=O)(OCCCC)OCCCC (stereo not drawn) | > 26.3 | 17.4 µM | – |
| N#CC(N)(C(=O)C(=O)NCCCNC(=O)C(=O)C(N)(C#N)c1ccc(Cl)cc1)c1ccc(Cl)cc1 (stereo not drawn) | > 174 | > 174 µM | – |
| O=C1/C(=C/c2ccccc2)CCCC/C1=C\c1ccccc1 | > 6.92 | > 6.92 µM | – |
| O=C(O)c1ccccc1-c1c2ccc(=O)c(I)c-2oc2c(I)c(O)ccc12 | > 316 | 19.1 µM | – |
| CC(=O)C(=Cc1ccc(F)cc1)C(C)=O | > 871 | 38 µM | – |
| CC1(C)C2CCC(O)(C2)C1N (stereo not drawn) | > 200 | > 200 µM | – |
| Cc1ccc(S(=O)(=O)N/N=C(\C(=O)Nc2cccc([N+](=O)[O-])c2)c2nc3ccc([N+](=O)[O-])cc3[nH]c2=O)cc1 | > 123 | 115 µM | – |
| Cc1ccsc1C(=S)Nc1ccc(Cl)c(/C=N/OC(C)C)c1 | 0.0575 | 10.7 µM | – |
| O=Cc1cc(O)ccc1Br | > 200 | 2.95 µM | – |
| c1ccc2c(OCCSCCCCCCCCCCSCCOc3cccc4ccccc34)cccc2c1 | > 5.01 | > 5.01 µM | – |
| CCCc1c2c([nH]c(=O)c1C)C(=O)c1[nH]c(=O)c(C)c(CCC)c1C2=O | – | – | inactive |
| CN(C)CC1CCCCC1O (stereo not drawn) | > 1290 | > 1290 µM | – |
| O=c1c2ccccc2nc2[nH][nH]c(=S)n12 | > 200 | 195 µM | – |
